Measured values: patent US20230372498A1, “PLK1 SELECTIVE DEGRADATION INDUCING COMPOUND” (UPPTHERA, priority 2020, published 2023)

Target: T1, PLK1 (Homo sapiens, UniProt P53350)
T1 construct: endogenous in cells; host or cells: HeLa
Test: PLK1 protein degradation in HeLa cells, Western blotting (PLK1/GAPDH ratio)
Assay type: cell-based
Conditions: 6 hours compound incubation; for DC50: measured only if the grade of Dmax is A or B; for Dmax: thymidine block and release, 10 points three-fold from 3 μM, PLK1 to GAPDH ratio, read-out: Dmax
Procedure, shortened: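 Thymidine-synchronised HeLa cells (2 mM, 24 h) released 4 h into complete medium, then treated 6 h with compound in 10-point 3-fold dilutions from 3 μM. RIPA lysates (15 μg protein) run on SDS-PAGE; PLK1 Western blot normalised to GAPDH.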

T1 sequence (P53350 whole entry): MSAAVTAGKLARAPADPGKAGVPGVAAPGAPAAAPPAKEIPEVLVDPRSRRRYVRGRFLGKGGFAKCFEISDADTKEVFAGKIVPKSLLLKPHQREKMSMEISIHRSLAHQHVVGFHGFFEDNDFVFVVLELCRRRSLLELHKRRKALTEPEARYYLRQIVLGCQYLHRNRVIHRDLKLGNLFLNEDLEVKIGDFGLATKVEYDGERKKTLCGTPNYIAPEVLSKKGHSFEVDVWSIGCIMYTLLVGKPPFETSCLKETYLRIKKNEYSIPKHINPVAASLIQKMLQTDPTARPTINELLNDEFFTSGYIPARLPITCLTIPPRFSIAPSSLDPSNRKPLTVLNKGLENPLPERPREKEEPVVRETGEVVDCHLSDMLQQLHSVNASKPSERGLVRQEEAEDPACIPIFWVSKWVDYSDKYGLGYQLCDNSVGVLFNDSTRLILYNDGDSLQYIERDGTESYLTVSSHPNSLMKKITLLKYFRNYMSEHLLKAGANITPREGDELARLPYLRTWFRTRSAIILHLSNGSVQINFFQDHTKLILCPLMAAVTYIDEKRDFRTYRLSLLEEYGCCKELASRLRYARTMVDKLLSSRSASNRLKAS

SMILES | DC50 | Dmax
COc1cc(C(=O)NC2CCN(CCOCCOCCNc3ccc4c(c3)C(=O)N(C3CCC(=O)NC3=O)C4=O)CC2)c(F)cc1Nc1ncc2c(n1)N(C1CCCC1)CC(F)(F)C(=O)N2C (stereo not shown) [Compound 50, 4-((9-cyclopentyl-7,7-difluoro-5-methyl-6-oxo-6,7,8,9-tetrahydro-5H-pyrimido[4,5-b][1,4]diazepin-2-yl)amino)-N-(1-(2-(2-(2-((2-(2,6-dioxopiperidin-3-yl)-1,3-dioxoisoindolin-5-yl)amino)ethoxy)ethoxy)ethyl)piperidin-4-yl)-2-fluoro-5-methoxybenzamide] | ≤ 50 nM | ≥ 80%
COc1cc(C(=O)NC2CCN(CCOCCOCCOCCOCCNc3ccc4c(c3)C(=O)N(C3CCC(=O)NC3=O)C4=O)CC2)c(F)cc1Nc1ncc2c(n1)N(C1CCCC1)CC(F)(F)C(=O)N2C (stereo not shown) [Compound 51, 4-((9-cyclopentyl-7,7-difluoro-5-methyl-6-oxo-6,7,8,9-tetrahydro-5H-pyrimido[4,5-b][1,4]diazepin-2-yl)amino)-N-(1-(14-((2-(2,6-dioxopiperidin-3-yl)-1,3-dioxoisoindolin-5-yl)amino)-3,6,9,12-tetraoxatetradecyl)piperidin-4-yl)-2-fluoro-5-methoxybenzamide] | ≤ 50 nM | ≥ 80%
COc1cc(C(=O)NC2CCN(CCOCCOCCOCCOCC#Cc3cccc4c3C(=O)N(C3CCC(=O)NC3=O)C4=O)CC2)c(F)cc1Nc1ncc2c(n1)N(C1CCCC1)CC(F)(F)C(=O)N2C (stereo not shown) [Compound 52, 4-((9-cyclopentyl-7,7-difluoro-5-methyl-6-oxo-6,7,8,9-tetrahydro-5H-pyrimido[4,5-b][1,4]diazepin-2-yl)amino)-N-(1-(15-(2-(2,6-dioxopiperidin-3-yl)-1,3-dioxoisoindolin-4-yl)-3,6,9,12-tetraoxapentadec-14-yn-1-yl)piperidin-4-yl)-2-fluoro-5-methoxybenzamide] | ≤ 50 nM | ≥ 80%
COc1cc(C(=O)NC2CCN(CCOCCOCCOCCOCCCc3cccc4c3C(=O)N(C3CCC(=O)NC3=O)C4=O)CC2)c(F)cc1Nc1ncc2c(n1)N(C1CCCC1)CC(F)(F)C(=O)N2C (stereo not shown) [Compound 53, 4-((9-cyclopentyl-7,7-difluoro-5-methyl-6-oxo-6,7,8,9-tetrahydro-5H-pyrimido[4,5-b][1,4]diazepin-2-yl)amino)-N-(1-(15-(2-(2,6-dioxopiperidin-3-yl)-1,3-dioxoisoindolin-4-yl)-3,6,9,12-tetraoxapentadecyl)piperidin-4-yl)-2-fluoro-5-methoxybenzamide] | ≤ 50 nM | ≥ 80%
COc1cc(C(=O)NC2CCN(CCOCCOCC#Cc3cccc4c3C(=O)N(C3CCC(=O)NC3=O)C4=O)CC2)c(F)cc1Nc1ncc2c(n1)N(C1CCCC1)CC(F)(F)C(=O)N2C (stereo not shown) [Compound 54, 4-((9-cyclopentyl-7,7-difluoro-5-methyl-6-oxo-6,7,8,9-tetrahydro-5H-pyrimido[4,5-b][1,4]diazepin-2-yl)amino)-N-(1-(2-(2-((3-(2-(2,6-dioxopiperidin-3-yl)-1,3-dioxoisoindolin-4-yl)prop-2-yn-1-yl)oxy)ethoxy)ethyl)piperidin-4-yl)-2-fluoro-5-methoxybenzamide] | ≤ 500 nM | 60 to 80%
COc1cc(C(=O)NC2CCN(CCOCCOCCCc3cccc4c3C(=O)N(C3CCC(=O)NC3=O)C4=O)CC2)c(F)cc1Nc1ncc2c(n1)N(C1CCCC1)CC(F)(F)C(=O)N2C (stereo not shown) [Compound 55, 4-((9-cyclopentyl-7,7-difluoro-5-methyl-6-oxo-6,7,8,9-tetrahydro-5H-pyrimido[4,5-b][1,4]diazepin-2-yl)amino)-N-(1-(2-(2-(3-(2-(2,6-dioxopiperidin-3-yl)-1,3-dioxoisoindolin-4-yl)propoxy)ethoxy)ethyl)piperidin-4-yl)-2-fluoro-5-methoxybenzamide] | ≤ 500 nM | 60 to 80%
COc1cc(C(=O)NC2CCN(CCOCCNC(=O)COc3cccc4c3C(=O)N(C3CCC(=O)NC3=O)C4=O)CC2)c(F)cc1Nc1ncc2c(n1)N(C1CCCC1)CC(F)(F)C(=O)N2C (stereo not shown) [Compound 56, 4-((9-cyclopentyl-7,7-difluoro-5-methyl-6-oxo-6,7,8,9-tetrahydro-5H-pyrimido[4,5-b][1,4]diazepin-2-yl)amino)-N-(1-(2-(2-(2-((2-(2,6-dioxopiperidin-3-yl)-1,3-dioxoisoindolin-4-yl)oxy)acetamido)ethoxy)ethyl)piperidin-4-yl)-2-fluoro-5-methoxybenzamide] | ≤ 500 nM | 60 to 80%
COc1cc(C(=O)NC2CCN(CCOCCOCCOCCNC(=O)COc3cccc4c3C(=O)N(C3CCC(=O)NC3=O)C4=O)CC2)c(F)cc1Nc1ncc2c(n1)N(C1CCCC1)CC(F)(F)C(=O)N2C (stereo not shown) [Compound 57, 4-((9-cyclopentyl-7,7-difluoro-5-methyl-6-oxo-6,7,8,9-tetrahydro-5H-pyrimido[4,5-b][1,4]diazepin-2-yl)amino)-N-(1-(1-((2-(2,6-dioxopiperidin-3-yl)-1,3-dioxoisoindolin-4-yl)oxy)-2-oxo-6,9,12-trioxa-3-azatetradecan-14-yl)piperidin-4-yl)-2-fluoro-5-methoxybenzamide] | ≤ 500 nM | 60 to 80%
COc1cc(C(=O)NC2CCN(CCOCCOCCOCCOCCOCCOCCOCCNC(=O)COc3cccc4c3C(=O)N(C3CCC(=O)NC3=O)C4=O)CC2)c(F)cc1Nc1ncc2c(n1)N(C1CCCC1)CC(F)(F)C(=O)N2C (stereo not shown) [Compound 58, 4-((9-cyclopentyl-7,7-difluoro-5-methyl-6-oxo-6,7,8,9-tetrahydro-5H-pyrimido[4,5-b][1,4]diazepin-2-yl)amino)-N-(1-(1-((2-(2,6-dioxopiperidin-3-yl)-1,3-dioxoisoindolin-4-yl)oxy)-2-oxo-6,9,12,15,18,21,24-heptaoxa-3-azahexacosan-26-yl)piperidin-4-yl)-2-fluoro-5-methoxybenzamide] |  | < 60%
COc1cc(C(=O)NC2CCN(CCCCCNC(=O)COc3cccc4c3C(=O)N(C3CCC(=O)NC3=O)C4=O)CC2)c(F)cc1Nc1ncc2c(n1)N(C1CCCC1)CC(F)(F)C(=O)N2C (stereo not shown) [Compound 59, 4-((9-cyclopentyl-7,7-difluoro-5-methyl-6-oxo-6,7,8,9-tetrahydro-5H-pyrimido[4,5-b][1,4]diazepin-2-yl)amino)-N-(1-(5-(2-((2-(2,6-dioxopiperidin-3-yl)-1,3-dioxoisoindolin-4-yl)oxy)acetamido)pentyl)piperidin-4-yl)-2-fluoro-5-methoxybenzamide] |  | < 60%
COc1cc(C(=O)NC2CCN(CCC(=O)NCCCCCCCNC(=O)COc3cccc4c3C(=O)N(C3CCC(=O)NC3=O)C4=O)CC2)c(F)cc1Nc1ncc2c(n1)N(C1CCCC1)CC(F)(F)C(=O)N2C (stereo not shown) [Compound 60, 4-((9-cyclopentyl-7,7-difluoro-5-methyl-6-oxo-6,7,8,9-tetrahydro-5H-pyrimido[4,5-b][1,4]diazepin-2-yl)amino)-N-(1-(3-((7-(2-((2-(2,6-dioxopiperidin-3-yl)-1,3-dioxoisoindolin-4-yl)oxy)acetamido)heptyl)amino)-3-oxopropyl)piperidin-4-yl)-2-fluoro-5-methoxybenzamide] | ≤ 50 nM | ≥ 80%
COc1cc(C(=O)NC2CCN(Cc3cccc(CNC(=O)COc4cccc5c4C(=O)N(C4CCC(=O)NC4=O)C5=O)c3)CC2)c(F)cc1Nc1ncc2c(n1)N(C1CCCC1)CC(F)(F)C(=O)N2C (stereo not shown) [Compound 61, 4-((9-cyclopentyl-7,7-difluoro-5-methyl-6-oxo-6,7,8,9-tetrahydro-5H-pyrimido[4,5-b][1,4]diazepin-2-yl)amino)-N-(1-(3-((2-((2-(2,6-dioxopiperidin-3-yl)-1,3-dioxoisoindolin-4-yl)oxy)acetamido)methyl)benzyl)piperidin-4-yl)-2-fluoro-5-methoxybenzamide] | ≤ 50 nM | 60 to 80%
COc1cc(C(=O)NC2CCN(Cc3cncc(CNC(=O)COc4cccc5c4C(=O)N(C4CCC(=O)NC4=O)C5=O)c3)CC2)c(F)cc1Nc1ncc2c(n1)N(C1CCCC1)CC(F)(F)C(=O)N2C (stereo not shown) [Compound 62, 4-((9-cyclopentyl-7,7-difluoro-5-methyl-6-oxo-6,7,8,9-tetrahydro-5H-pyrimido[4,5-b][1,4]diazepin-2-yl)amino)-N-(1-((5-((2-((2-(2,6-dioxopiperidin-3-yl)-1,3-dioxoisoindolin-4-yl)oxy)acetamido)methyl)pyridin-3-yl)methyl)piperidin-4-yl)-2-fluoro-5-methoxybenzamide] | ≤ 50 nM | 60 to 80%
COc1cc(C(=O)NC2CCN(CCCCCCCc3cccc(CNC(=O)COc4cccc5c4C(=O)N(C4CCC(=O)NC4=O)C5=O)c3)CC2)c(F)cc1Nc1ncc2c(n1)N(C1CCCC1)CC(F)(F)C(=O)N2C (stereo not shown) [Compound 63, 4-((9-cyclopentyl-7,7-difluoro-5-methyl-6-oxo-6,7,8,9-tetrahydro-5H-pyrimido[4,5-b][1,4]diazepin-2-yl)amino)-N-(1-(7-(3-((2-((2-(2,6-dioxopiperidin-3-yl)-1,3-dioxoisoindolin-4-yl)oxy)acetamido)methyl)phenyl)heptyl)piperidin-4-yl)-2-fluoro-5-methoxybenzamide] | ≤ 50 nM | ≥ 80%
COc1cc(C(=O)NC2CCN(CCCCCCCc3cncc(CNC(=O)COc4cccc5c4C(=O)N(C4CCC(=O)NC4=O)C5=O)c3)CC2)c(F)cc1Nc1ncc2c(n1)N(C1CCCC1)CC(F)(F)C(=O)N2C (stereo not shown) [Compound 64, 4-((9-cyclopentyl-7,7-difluoro-5-methyl-6-oxo-6,7,8,9-tetrahydro-5H-pyrimido[4,5-b][1,4]diazepin-2-yl)amino)-N-(1-(7-(5-((2-((2-(2,6-dioxopiperidin-3-yl)-1,3-dioxoisoindolin-4-yl)oxy)acetamido)methyl)pyridin-3-yl)heptyl)piperidin-4-yl)-2-fluoro-5-methoxybenzamide] | ≤ 50 nM | ≥ 80%
